Data reported in US20050221196A1, “Redox shuttle for rechargeable lithium-ion cell” (priority 2004, published 2005).

Legend:
[1] = Maximum solubility of shuttle in electrolyte, determined visually; format: physicochemical; conditions: in the Example 1 and Example 2 electrolyte (0.7 M LiBOB EC:DEC 1:2)
Procedure: Solubility limits were determined visually, after extended mixing.

[2] = Cyclic voltammetry shuttle diffusion constant; format: physicochemical
Procedure: Further testing was carried out in coin cells made using 0.2 M 2,5-di-tert-butyl-1,4-dimethoxybenzene and 0.5 M LiBOB in 1:2 PC:DEC. […] For this cell the shuttle was singly ionized, the initially estimated electrode area was 1.3 cm^2 and the initially estimated electrode spacing was defined by the 25 μm separator. Based on measurements of the shuttle potential versus applied current, the effective diffusion constant D was estimated to be about 7×10^−7 cm^2/sec, and the maximum current density carried by the shuttle was estimated to be about 2.3 mA/cm^2. Using cyclic voltammetry, the shuttle diffusion constant was determined to be 1.6×10^−6 cm^2/sec. […] Thus, the effective area was less than 1.3 cm^2 and the effective length was greater than 25 μm.

[3] = Extended shuttle-protected overcharge cycling, LiFePO4/graphite cell, 100% overcharge each cycle; conditions: 0.2 M shuttle, 0.5 M LiBOB in 1:2 PC:DEC
Procedure: Further testing was carried out to evaluate currents up to 1/3 of Imax in extended shuttle-protected overcharge tests. […] The shuttle plateau is near 3.9 V because the graphite electrode is near 0 V vs Li/Li^+ when the Li-ion coin cell is fully charged. The charging current was 0.55 mA, which corresponds to about a C/2-rate for the electrodes of this cell. The shuttle continues to perform well after 200 charge discharge cycles. […] In this case, the shuttle was able to protect against overcharge for about 190 cycles, followed by disappearance of the shuttle effect over the next few cycles. […] The loss of shuttle effect at high C rates may have been due to the Li4/3Ti5/3O4 negative electrode dropping below its plateau potential (1.55 V) before reaching the fully discharged state.

[4] = Shuttle potential versus sequentially increased charge current in coin cell (Imax)
Excerpt: According to the literature (Richardson et al., J. Electrochem. Soc. Vol. 143, 3992 (1996)) the maximum shuttle current for a singly ionized shuttle is given by Imax=FAD C/d, [1] where F is Faraday's number, A is the electrode area, D is an effective diffusion constant of the shuttle species (taking into account both oxidized and reduced forms of the shuttle), C is the total concentration of the shuttle species and d is the distance between the electrodes. To obtain a large shuttle current, the electrolyte should impart a large diffusion constant, D, to the shuttle and support a high shuttle concentration, C. The shuttle diffusion constant usually will increase as the electrolyte solution viscosity decreases. A variety of charge carrying media may be employed in the electrolyte. Exemplary media are liquids or gels capable of solubilizing sufficient quantities of the lithium salt and the redox chemical shuttle so that a suitable quantity of charge can be transported from the positive electrode to negative electrode. […]
Further testing was carried out in coin cells made using 0.2 M 2,5-di-tert-butyl-1,4-dimethoxybenzene and 0.5 M LiBOB in 1:2 PC:DEC. […] Using cyclic voltammetry, the shuttle diffusion constant was determined to be 1.6×10^−6 cm^2/sec. […]

[5] = Shuttle molecules tested in LiFePO4/graphite and LiFePO4/Li4/3Ti5/3O4 coin cells, C/10, 100% overcharge; conditions: 0.1M shuttle, 0.7 M LiBOB PC:DMC:EC:DEC 1:2:1:2
Procedure: A variety of shuttle molecules (obtained from Aldrich Chemical Co. and used without further purification) were tested in LiFePO4/graphite and LiFePO4/Li4/3Ti5/3O4 coin cells. The LiFePO4 was obtained from Phostech Lithium as in Example 1 and the Li4/3Ti5/3O4 was obtained from NEI Corp. (Piscataway, N.J., USA). The graphite used was mesocarbon microbeads (MCMB) heat treated to near 2650° C. Electrodes were made from the active materials 10% by weight Super S carbon black (MMM Carbon, Belgium) and 10% by weight PVDF binder. LiFePO4 and Li4/3Ti5/3O4 electrodes were coated on aluminum foil and MCMB electrodes were coated on copper foil. […] The electrolyte was 0.7 M LiBOB in a 1:2:1:2 by volume mixture of PC:DMC:EC:DEC. The shuttle molecule was added in a concentration of 0.1M. Coin cells were charged using currents corresponding to a normal recharge in 10 hours (C/10) to 200% of their normal charge capacity (100% overcharge) or until a specified upper cut-off potential (normally 4.9V versus Li/Li^+) was reached, which ever occurred first and tested until the shuttle ceased to function. Four shuttles were employed, namely 1,3,5-tri-t-butyl-2-methoxybenzene (Example 9), 5-t-butyl-1,3-dinitro-2-methoxybenzene (Example 10), 2-t-butyl-4,6-dinitro-5-methylanisole (Example 11) and 4-t-butyl-2,6-diaminoanisole (Comparison Example 10). The coin cell test results are set out below in Table 2: […]

Compound: COc1cc(C(C)(C)C)c(OC)cc1C(C)(C)C [2,5-di-tert-butyl-1,4-dimethoxybenzene]
- maximum room temperature solubility [1]: ~90 mM
- shuttle diffusion constant [2]: 1.6×10^−6 cm^2/sec
- shuttle plateau [3]: ~3.9 V
- potential at which the shuttle became oxidized at the LiFePO4 positive electrode ([4]; 0.2 M shuttle, 0.5 M LiBOB in 1:2 PC:DEC): about 3.9 V vs Li/Li^+
- effective diffusion constant D (estimated from shuttle potential versus applied current) ([4]; electrode area 1.3 cm^2, 25 μm separator): about 7×10^−7 cm^2/sec

Compound: COc1c(N)cc(C(C)(C)C)cc1N [Comp. Ex. 5, 4-t-butyl-2,6-diaminoanisole, reference compound]
- Potential V, Li/Li^+ [5]: 4.4 V

Compound: COc1c(C(C)(C)C)cc(C(C)(C)C)cc1C(C)(C)C [Example 9, 1,3,5-tri-t-butyl-2-methoxybenzene]
- Potential V, Li/Li^+ [5]: 4.4 V

Compound: COc1c([N+](=O)[O-])cc(C(C)(C)C)cc1[N+](=O)[O-] [Example 10, 5-t-butyl-1,3-dinitro-2-methoxybenzene]
- Potential V, Li/Li^+ [5]: 4.9 V

Compound: COc1c(C(C)(C)C)cc([N+](=O)[O-])c(C)c1[N+](=O)[O-] [Example 11, 2-t-butyl-4,6-dinitro-5-methylanisole]
- Potential V, Li/Li^+ [5]: 4.9 V
